Values belong to the compound of their own block, whether it stands above or below them. Starred links: 1 amine or outer side, 2 acyl side, 3 side chain; linkers in the order of their positions; H or OH if unused. Residues, ends and D or L forms follow the SMILES beside them. *: point of attachment. pNA = O=[N+]([O-])c1ccc(N*)cc1; Suc = O=C(CCC(=O)[*:2])[*:1]
Assays:
[1] = tested on: Beauveria ester hydrolase; test: Km from the activity of the preparation at different concentrations of substrate; format: biochemical, Beauveria bassiana; details: partially purified enzyme preparation
[2] = tested on: Beauveria ester hydrolase; test: Substrate specificity of the enzyme preparation (Table 9; lipase and protease substrates); format: biochemical, Beauveria bassiana; details: compound used as substrate
Experimental: A one-mL (final volume) reaction mixture contained ketoprofen choline ester (6 mg), NaPi buffer (200 mM, pH 6.5), and 150 mg of whole cells or pellet, or 300 μL cell crude extract. The reaction was carried out at 30° C. in a shaker with a reciprocal speed of 169 rpm. Routine assays of the enzyme were performed by using p-nitrophenyl ketoprofen as a substrate at 30° C.
(§1) Although the enzyme hydrolyzes the water-soluble choline ester, it appears that the enzyme might be a lipase.

[3] = tested on: Beauveria ester hydrolase; test: Sensitivity of the enzyme to PMSF; format: biochemical, Beauveria bassiana
Source text: as §1

[4] = tested on: Beauveria ester hydrolase; details: at 40 mM acid; partially purified enzyme preparation

estimated km [1]: 4.96 mM
SMILES: CC(C(=O)OCC[N+](C)(C)C)c1cccc(C(=O)c2ccccc2)c1 (racemic) [ketoprofen choline ester]

SMILES: C[C@H](NC(=O)CCC(=O)O)C(=O)N[C@@H](C)C(=O)N1CCC[C@H]1C(=O)N[C@@H](Cc1ccccc1)C(=O)Nc1ccc([N+](=O)[O-])cc1 [N-succinyl-ala-ala-pro-phe-p-nitroaniline] (Suc-AAPF-pNA)
hydrolysis of the substance by the enzyme preparation (in words) [2]: does not hydrolyze

SMILES: O=S(=O)(F)Cc1ccccc1 [PMSF, phenylmethylsulfonylfluoride]
sensitivity of the enzyme to the inhibitor (in words) [3]: sensitive

SMILES: C[C@@H](C(=O)O)c1cccc(C(=O)c2ccccc2)c1 [acid product, R-ketoprofen]
inhibition of the enzyme by reaction product [4]: approximately 45%

Enzymic activity (n mole substrate hydrolyzed/min/mL enzyme) [2]: 215 n mole substrate hydrolyzed/mi
SMILES: CC(=O)Oc1ccc([N+](=O)[O-])cc1 [p-nitrophenyl acetate]

Enzymic activity (n mole substrate hydrolyzed/min/mL enzyme) [2]: 7496 n mole substrate hydrolyzed/mi
SMILES: CCCCCCCCCCCCCCCC(=O)Oc1ccc([N+](=O)[O-])cc1 [p-nitrophenyl palmitate]
